Source: PMC7395068, “The evolution of strategies to minimise the risk of human drug-induced liver injury (DILI) in drug discovery and development” (Archives of Toxicology, 2020)
Like-named read-outs stand apart in the source and are kept apart here.

Columns and labels:
[1] = read-out: Human plasma Cmax; total plasma Cmax.tot, median of 9 literature references; cited from earlier work
[2] = tested on: primary human hepatocytes, NIH3T3 fibroblasts, BSEP, CYP3A4; conditions: cited from earlier work
rBsep = conditions: In vitro Assay; ref Dawson 2012; cited from earlier work
PHH 3D spheroids = tested on: PHH 3D spheroids; set-up: method as in Bell et al. 2018; conditions: 14-day exposure, three donors, ref Bell et al. 2018; cited from earlier work
[3] = Plasma free fraction (fu) and unbound Cmax (Cmax,u); type: in vitro ADME, human; conditions: unbound plasma Cmax
Protocol: The prediction of DILI severity was evaluated further using the 3D combined HCI assays using plasma-free fraction. The majority of fu values were obtained from literature, when unavailable in-house prediction was utilised. Unbound plasma Cmax concentrations (Cmax,u) were derived by multiplying total plasma Cmax with the corresponding free fraction (fu) for each compound.

[4] = tested on: THLE or HepG2 cells, isolated mitochondria, BSEP; conditions: cited from earlier work
PHH = conditions: cited from earlier work
[5] = cited from earlier work
[6] = cited from earlier work; remark: listed apart in the source
PHH spheroids = conditions: cited from earlier work
[7] = ref Chen 2011; cited from earlier work
hLiMTs [8] = conditions: cited from earlier work
[9] = plasma free fraction; cited from earlier work
hLiMTs [10] = assay: Combined HCI (HCS) and cellular ATP 3D assay in hLiMTs; conditions: for AC50 / minimal effective concentration: Homo sapiens
[11] = tested on: THLE-Null and THLE-3A4 cells; conditions: In vitro Assay; ref Gustafsson 2014; cited from earlier work
OATP1B1 = conditions: known substrates; cited from earlier work
HepaRG spheroids = assay: Combined HCI (HCS) and cellular ATP 3D assay in HepaRG spheroids; conditions: for AC50 / minimal effective concentration: Homo sapiens
[12] = tested on: HepG2 C3A spheroid, BSEP, Glu/Gal in HepG2 cells, bioactivation; conditions: cited from earlier work
[13] = tested on: HepG2 cells, primary human hepatocytes; conditions: In vitro Assay; ref Garside 2014; cited from earlier work
[14] = In vitro Assay, ref Schadt 2015
[15] = Modeled in vitro assays (cytotoxicity, mitochondrial dysfunction, BSEP), ref Aleo et al. 2019
[16] = In vitro Assay, ref Proctor 2017
[17] = Microtissue model structural based (HCI), combined HCS and ATP, MEC < 25 × Cmax.tot cut-off

## COc1ccccc1Oc1c(NS(=O)(=O)c2ccc(C(C)(C)C)cc2)nc(-c2ncccn2)nc1OCCO [bosentan]
[1]
  Cmax: 7.43 µM
[2]; BSEP & Metabolism based, ref Schadt et al. 2015
  DILI in vitro assay prediction, Schadt (2015): +VE
[2]; [14]
  Cellular toxicity (3T3 cells): -VE
  Combined Assay: +VE
  GSH adduct HML: +VE
  Hepatocyte cellular toxicity: +VE
  MitoTox 3T3: -VE
  TDI CYP3A4: -VE
  hBSEP inhibition: +VE
rBsep
  Inhibition of rBsep cutoff<1& cmax u>.2: +VE
  Inhibition of rBsep cutoff<3: +VE
PHH 3D spheroids
  detection at 10 × Cmax.tot cut-off: only detected by one of three donors
[3]
  Human plasma Cmax,u: 0.149 µM
[4]; In vitro Assay, ref Aleo 2019
  Partition Hybrid HRM Score: +VE
  Ro2 Hybrid HRM Score: +VE
[4]; [15]
  Partition Hybrid HRM Score ≥4, Aleo (2019): +VE (Partition Hybrid HRM Score ≥4)
  Partition Hybrid HRM Score ≥8, Aleo (2019): +VE (Partition Hybrid HRM Score ≥8)
  Rule of Two hybrid HRM Score ≥3, Aleo (2019): +VE (Rule of Two hybrid HRM Score ≥3)
  Rule of Two hybrid HRM Score ≥8, Aleo (2019): +VE (Rule of Two hybrid HRM Score ≥8)
PHH; 2D PHH, ATP, IC50 < 100 × Cmax.tot, ref Proctor et al. 2017
  PHH/100xCmax, Proctor (2017): -VE
PHH; 2D PHH, ATP, IC50 threshold 100 µM, ref Proctor et al. 2017
  PHH/100uM, Proctor (2017): -VE
PHH; [16]
  PHH ATP <100uM: -VE
[5]; LTKB DILIrank category, ref Chen et al. 2016
  DILI severity category (Chen et al. [2016]): Most
[5]; human DILI classification, LTKB DILIrank, ref Chen et al. 2016
  DILI severity category (Chen 2016): Most
[5]; human DILI severity, ref Chen et al.
  DILI severity category: Most
[5]; ref Chen 2016
  DILI +VE (5-8), DILI -VE (-4): +VE
  DILI severity category: vMost-DILI-Concern
[6]; Chen et al. 2016 or literature alignment, ref Chen et al. 2016
  Assigned DILI category: 3
[6]; ref Aleo 2019
  In vivo DILI: +VE
[6]; ref Dawson 2012
  In vivo DILI: +VE
[6]; ref Garside 2014
  In vivo DILI: +VE
[6]; ref Gustafsson 2014
  In vivo DILI: +VE
[6]; ref Proctor 2017
  In vivo DILI: +VE
[6]; ref Schadt 2015
  In vivo DILI: +VE
[6]; ref Vorrink 2018
  In vivo DILI: +VE
[6]; ref Williams 2019
  In vivo DILI: +VE
PHH spheroids; In vitro Assay, ref Vorrink 2018
  hLiMTs ATP <20 x Cmax: +VE (IC20 < 20 × Cmax.tot cut-off)
PHH spheroids; PHH spheroids, ATP, 14 days, IC20 < 20 × Cmax.tot, ref Vorrink et al. 2018
  DILI in vitro assay prediction, Vorrink (2018): +VE (IC20 < 20 × Cmax.tot cut-off)
[7]
  DILI Score (FDA) (1-8): 7
hLiMTs [8]; [16]
  hLiMTs ATP <100uM: +VE (IC50 threshold of 100 µM)
hLiMTs [8]; hLiMTs, ATP, IC50 < 100 × Cmax.tot, ref Proctor et al. 2017
  hLiMTs/100xCmax, Proctor (2017): +VE (IC50 < 100 × Cmax.tot)
hLiMTs [8]; hLiMTs, ATP, IC50 threshold 100 µM, ref Proctor et al. 2017
  hLiMTs/100uM, Proctor (2017): +VE (IC50 threshold of 100 µM)
[9]
  fu: 0.020
hLiMTs [10]; read-out: ATP endpoint AC50
  AC50: 57.9 µM
hLiMTs [10]; read-out: ATP endpoint MEC
  minimal effective concentration: 29.4 µM
hLiMTs [10]; read-out: HCS endpoint AC50
  AC50: 179 µM
hLiMTs [10]; read-out: HCS endpoint MEC
  minimal effective concentration: 63 µM
hLiMTs [10]; [17]
  DILI prediction hLiMTs (HCS-MEC): +VE (MEC < 25 × Cmax.tot cut-off)
hLiMTs [10]; hLiMTs, ATP endpoint, cut-off <25x Avg Cmax
  hLiMTs <25x Avg Cmax ATP: +ve
hLiMTs [10]; hLiMTs, ATP endpoint, cut-off <100x Avg Cmaxu
  hLiMTs <100x Avg Cmaxu ATP: -ve
hLiMTs [10]; hLiMTs, HCS endpoints, cut-off <25x Avg Cmax
  hLiMTs <25x Avg Cmax HCS: +ve
hLiMTs [10]; hLiMTs, HCS endpoints, cut-off <100x Avg Cmaxu
  hLiMTs <100x Avg Cmaxu HCS: -ve
hLiMTs [10]; hLiMTs, all endpoints (ATP and HCS), cut-off <25x Avg Cmax
  hLiMTs <25x Avg Cmax All: +ve
hLiMTs [10]; hLiMTs, all endpoints, Cmax max used
  hLiMTs Cmax max All: +ve
hLiMTs [10]; hLiMTs, all endpoints, Cmax min used
  hLiMTs Cmax min All: +ve
hLiMTs [10]; hLiMTs, all endpoints, cut-off <10 uM
  hLiMTs <10 uM All: -ve
hLiMTs [10]; hLiMTs, all endpoints, cut-off <100x Avg Cmaxu
  hLiMTs <100x Avg Cmaxu All: -ve
[11]
  THLE-Null: -VE
  THLE-Null/3A4: -VE
OATP1B1
  substrate for hepatic uptake transporter OATP1B1: known substrates
HepaRG spheroids; HepaRG, ATP endpoint, cut-off <25x Avg Cmax
  HepaRG <25x Avg Cmax ATP: +ve
HepaRG spheroids; HepaRG, ATP endpoint, cut-off <100x Avg Cmaxu
  HepaRG <100x Avg Cmaxu ATP: -ve
HepaRG spheroids; HepaRG, HCS endpoints, cut-off <25x Avg Cmax
  HepaRG <25x Avg Cmax HCS: +ve
HepaRG spheroids; HepaRG, HCS endpoints, cut-off <100x Avg Cmaxu
  HepaRG <100x Avg Cmaxu HCS: -ve
HepaRG spheroids; HepaRG, all endpoints (ATP and HCS), cut-off <25x Avg Cmax
  HepaRG <25x Avg Cmax All: +ve
HepaRG spheroids; HepaRG, all endpoints, Cmax max used
  HepaRG Cmax max All: +ve
HepaRG spheroids; HepaRG, all endpoints, Cmax min used
  HepaRG Cmax min All: +ve
HepaRG spheroids; HepaRG, all endpoints, cut-off <10 uM
  HepaRG <10 uM All: -ve
HepaRG spheroids; HepaRG, all endpoints, cut-off <100x Avg Cmaxu
  HepaRG <100x Avg Cmaxu All: -ve
HepaRG spheroids; HepaRG, read-out: ATP endpoint AC50
  AC50: 74.7 µM
HepaRG spheroids; HepaRG, read-out: ATP endpoint MEC
  minimal effective concentration: 35.2 µM
HepaRG spheroids; HepaRG, read-out: HCS endpoint AC50
  AC50: 125 µM
HepaRG spheroids; HepaRG, read-out: HCS endpoint MEC
  minimal effective concentration: 40 µM
HepaRG spheroids; [17]
  DILI prediction HepaRG spheroids (HCS-MEC): +VE (MEC < 25 × Cmax.tot cut-off)
[12]; Bayesian modeling, ref Williams et al. 2019
  Bayesian Machine Learning DILI prediction, Williams (2019): +VE
[12]; In vitro Assay, ref Williams 2019
  Bayesian Machine Learning: +VE
[13]
  Cluster 1-6 +VE Assay: -VE
